Where “and” joins values, the source holds several entries; their conditions need not be identical. Equal values may be shown once. Toxic doses and inconclusive results are not listed.
Tested on: L1210 leukemia ip in BDF1 mice, survival T/C
Experiment: NCI In Vivo Anticancer Drug Screen. Data for tumor model L1210 Leukemia (intraperitoneal) in B6D2F1 (BDF1) mice
Details: higher = longer survival
Method in brief: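 Transplantable tumor model; survival measured in treated vs vehicle control mice. Value = treated/control.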

[1] = endpoint: mean survival time, dose: 100.0 mg/kg/injection, schedule: Q01DX009 (ip), vehicle: Klucel (hydroxypropylcellulose) (HPC)
[2] = endpoint: mean survival time, dose: 200.0 mg/kg/injection, schedule: Q01DX009 (ip), vehicle: Klucel (hydroxypropylcellulose) (HPC)
[3] = endpoint: mean survival time, dose: 400.0 mg/kg/injection, schedule: Q01DX009 (ip), vehicle: Klucel (hydroxypropylcellulose) (HPC)

SMILES: C/C(=N\N=C(N)N)c1ccc(NC(=O)Nc2ccc(/C(C)=N/N=C(N)N)cc2)cc1
- T/C (endpoint: mean survival time, dose: 10.0 mg/kg/injection, schedule: Q01DX009 (ip), vehicle: saline): 109 % of control and 124 % of control
- T/C (endpoint: mean survival time, dose: 18.0 mg/kg/injection, schedule: Q01DX009 (ip), vehicle: water): 187 % of control
- T/C (endpoint: mean survival time, dose: 20.0 mg/kg/injection, schedule: Q01DX005 (ip), vehicle: saline): 157 % of control
- T/C (endpoint: mean survival time, dose: 30.0 mg/kg/injection, schedule: Q01DX009 (ip), vehicle: carboxymethylcellulose (CMC)): 152 % of control
- T/C (endpoint: mean survival time, dose: 30.0 mg/kg/injection, schedule: Q01DX009 (ip), vehicle: water): 188 % of control
- T/C (endpoint: mean survival time, dose: 40.0 mg/kg/injection, schedule: Q01DX005 (ip), vehicle: saline): 150 % of control
- T/C (endpoint: mean survival time, dose: 40.0 mg/kg/injection, schedule: Q01DX009 (ip), vehicle: water): 174 % of control
- T/C (endpoint: mean survival time, dose: 50.0 mg/kg/injection, schedule: Q01DX009 (ip), vehicle: carboxymethylcellulose (CMC)): 189 % of control
- T/C (endpoint: mean survival time, dose: 50.0 mg/kg/injection, schedule: Q01DX009 (ip), vehicle: water): 259 % of control
- T/C (endpoint: mean survival time, dose: 65.0 mg/kg/injection, schedule: Q01DX009 (ip), vehicle: water): 167 % of control
- T/C (endpoint: mean survival time, dose: 80.0 mg/kg/injection, schedule: Q01DX005 (ip), vehicle: saline): 177 % of control
- T/C (endpoint: mean survival time, dose: 83.3 mg/kg/injection, schedule: Q01DX009 (ip), vehicle: carboxymethylcellulose (CMC)): 257 % of control
- T/C (endpoint: mean survival time, dose: 83.3 mg/kg/injection, schedule: Q01DX009 (ip), vehicle: water): 243 % of control
- T/C (endpoint: mean survival time, dose: 108.0 mg/kg/injection, schedule: Q01DX015 (ip), vehicle: saline): 172 % of control
- T/C (endpoint: mean survival time, dose: 160.0 mg/kg/injection, schedule: Q01DX005 (ip), vehicle: saline): 226 % of control
- T/C (endpoint: mean survival time, dose: 180.0 mg/kg/injection, schedule: Q01DX015 (ip), vehicle: saline): 207 % of control
- T/C (endpoint: mean survival time, dose: 400.0 mg/kg/injection, schedule: Q01DX001 (ip), vehicle: other): 157 % of control
- T/C (endpoint: mean survival time, dose: 600.0 mg/kg/injection, schedule: Q01DX001 (ip), vehicle: other): 188 % of control
- T/C (endpoint: median survival time, dose: 50.0 mg/kg/injection, schedule: Q01DX009 (ip), vehicle: saline): 162 % of control
- T/C (endpoint: median survival time, dose: 60.0 mg/kg/injection, schedule: Q03HX024 (ip), vehicle: water): 228 % of control
- T/C (endpoint: median survival time, dose: 75.0 mg/kg/injection, schedule: Q03HX024 (ip), vehicle: water): 166 % of control
- T/C (endpoint: median survival time, dose: 90.0 mg/kg/injection, schedule: Q03HX024 (ip), vehicle: water): 284 % of control
- T/C (endpoint: median survival time, dose: 100.0 mg/kg/injection, schedule: Q01DX009 (ip), vehicle: saline): 215 % of control and 262 % of control
- T/C (endpoint: median survival time, dose: 105.0 mg/kg/injection, schedule: Q03HX024 (ip), vehicle: water): 168 % of control
- T/C (endpoint: median survival time, dose: 120.0 mg/kg/injection, schedule: Q03HX024 (ip), vehicle: water): 303 % of control
- T/C (endpoint: median survival time, dose: 200.0 mg/kg/injection, schedule: Q01DX009 (ip), vehicle: saline): 260 % of control and 312 % of control

SMILES: CCCn1c2ccccc2c2ccccc21
- T/C [1]: 96 % of control
- T/C [2]: 97 % of control
- T/C [3]: 94 % of control

SMILES: COc1ccc2c(O)coc2c1
- T/C [1]: 100 % of control
- T/C (endpoint: mean survival time, dose: 100.0 mg/kg/injection, schedule: Q04DX003 (ip), vehicle: Klucel (hydroxypropylcellulose) (HPC)): 104 % of control
- T/C [2]: 101 % of control
- T/C (endpoint: mean survival time, dose: 200.0 mg/kg/injection, schedule: Q04DX003 (ip), vehicle: Klucel (hydroxypropylcellulose) (HPC)): 102 % of control
- T/C [3]: 96 % of control
- T/C (endpoint: mean survival time, dose: 400.0 mg/kg/injection, schedule: Q04DX003 (ip), vehicle: Klucel (hydroxypropylcellulose) (HPC)): 93 % of control

SMILES: CCOC(=O)c1cnc2ccccc2c1Cl
- T/C (endpoint: mean survival time, dose: 100.0 mg/kg/injection, schedule: Q01DX001 (ip), vehicle: saline): 103 % of control and 87 % of control
- T/C (endpoint: mean survival time, dose: 200.0 mg/kg/injection, schedule: Q01DX001 (ip), vehicle: saline): 105 % of control
- T/C (endpoint: mean survival time, dose: 400.0 mg/kg/injection, schedule: Q01DX001 (ip), vehicle: saline): 103 % of control

SMILES: c1ccc(-c2c[n+]3cc4ccccc4cc3cn2)cc1
- T/C (endpoint: mean survival time, dose: 100.0 mg/kg/injection, schedule: Q01DX009 (ip), vehicle: saline): 91 % of control
- T/C (endpoint: mean survival time, dose: 100.0 mg/kg/injection, schedule: Q04DX003 (ip), vehicle: saline): 100 % of control
- T/C (endpoint: mean survival time, dose: 200.0 mg/kg/injection, schedule: Q01DX009 (ip), vehicle: saline): 96 % of control
- T/C (endpoint: mean survival time, dose: 200.0 mg/kg/injection, schedule: Q04DX003 (ip), vehicle: saline): 96 % of control
- T/C (endpoint: mean survival time, dose: 400.0 mg/kg/injection, schedule: Q01DX009 (ip), vehicle: saline): 97 % of control
- T/C (endpoint: mean survival time, dose: 400.0 mg/kg/injection, schedule: Q04DX003 (ip), vehicle: saline): 98 % of control
